Measured values: patent US20090311227A1, “Composition” (Danisco A/S, priority 2006, published 2009)

Columns and labels:
[1] = tested on: rats with visceral hypersensitivity induced by the butyrate; assay: CRD test, role of CB2 and MOR receptors in NCFM-induced analgesia (antagonists) in butyrate-treated rats; format: in vivo, rat; details: for effect on NCFM-induced analgesia: butyrate-treated rats receiving NCFM 10^9 CFU/day 15 days, antagonist given peritoneally 30 min before CRD (AM630, naloxone methiodide 2 mg/kg); for effect on pain perception in control rats: control rats with butyrate-induced visceral hypersensitivity, no NCFM, AM630 or naloxone methiodide 2 mg/kg, 30 min before CRD
Experimental: (§1) Male Sprague-Dawley rats (Charles River, l'Arbresle, France) weighing 175-200 g were used in this study. Rats were maintained in laboratory conditions for 1 week before experiment. The animals were housed 5 per cage with food and water available ad libitum. All studies were performed in accordance with the proposal of the committee for Research and Ethical Issues of the International Association for the Study of Pain (Zimmermann M, Pain. 1983; 16:109-110). Great care was taken, particularly with regard to housing conditions, to avoid or minimize discomfort to the animals.
For each enema, a catheter (2-mm Fogarty catheter) was placed in the colon at 7 cm from the anus, and the animals received 1 ml of 200 mM of sodium butyrate at neutral pH (pH6.9) twice daily for 3 days. Healthy animals received saline.
Nociception in the animals was assessed by measuring the intracolonic pressure required to induce a behavioral response during colorectal distension (CRD) due to the inflation of a balloon introduced in the colon. This response was characterized by an elevation of the hind part of the animal body and clearly visible abdominal contraction corresponding to the severe contractions (Al Chaer, gastro 2000; Tarrerias, pain 2002; Bourdu et al., 2005). Briefly, rats were anesthetized with volatile anaesthesia (2% isoflurane), the balloon (prepared as previously described in Bourdu & al, 2005) was inserted intrarectally in a minimally invasive manner to 7 cm from the anus, and the catheter was taped to the base of the tail. After 5 minutes, rats were placed in the middle of a 40×40-cm Plexiglas box and the catheter was connected to an electronic barostat apparatus (Synectics Visceral Stimulator; Medtronic, Boulogne-Billancourt, France).
Four groups of animals treated with butyrate were used (n=10/group). Two groups were treated once a day during fifteen days by gastric gavage, 10^9 CFU of NCFM strain and the two other groups of butyrate-treated animals received CarboxyMethyl Cellulose (CMC) by the same route and during the same time. NCFM strain was resuspended in 0.5% CMC (CarboxyMethyl Cellulose, Sigma). Butyrate instillations began 7 days after the first gavage for three days. Colonic hypersensitivity was determined 14 days after the after beginning of oral treatment thus 7 days after colonic instillations. […]
(§2) All experiments were performed in a blind manner by the same experimenter using the block method. Results are expressed as mean±SEM of raw data. Results of CRD testing were analysed using one-way analysis of variance (ANOVA) followed of a Bonferroni post-hoc test to compare several treatments. […]

[2] = tested on: rats with colonic hypersensitivity induced by butyrate enemas; details: rat with visceral hypersensitivity induced by butyrate; known from Bourdu et al; cited from earlier work
[3] = tested on: rats with colonic hypersensitivity induced by butyrate; assay: CRD test, probiotic co-administered with suboptimal morphine in rats with butyrate-induced colonic hypersensitivity; format: in vivo, rat; details: butyrate-treated rats
Experimental: as §1, with “Pain” for “Pain.”, “animals. […]” for “animals.”
Nociception in the animals was assessed by measuring the intracolonic pressure required to induce a behavioral response during colorectal distension (CRD) due to the inflation of a balloon introduced in the colon. […]
Four groups of animals treated with butyrate were used (n=10/group). […] Colonic hypersensitivity was determined 14 days after the after beginning of oral treatment thus 7 days after colonic instillations. […]
as §2

SMILES	effect on NCFM-induced analgesia [1]	effect on pain perception in control rats [1]	effect on colonic hypersensitivity in CRD test [2]	pain threshold ([3]; morphine 0.1 mg/kg subcutaneously alone, 30 min before CRD, mean±SEM)	difference on pain threshold vs rats not receiving morphine ([3]; suboptimal dosage of morphine 0.1 mg/kg)
COc1ccc(C(=O)c2c(C)n(CCN3CCOCC3)c3cc(I)ccc23)cc1 [AM630]	significantly inhibited	no effect			
C=CC[N+]1(C)CC[C@]23c4c5ccc(O)c4O[C@H]2C(=O)CC[C@@]3(O)[C@H]1C5 (stereo partly shown) [NLX, naloxone methiodide]	not	no effect			
CN1CC[C@]23c4c5ccc(O)c4O[C@H]2[C@@H](O)C=C[C@H]3[C@H]1C5 [morphine]			dose-dependent decrease	41.5±2.4	No difference
